Experimental data: PubChem BioAssay (NCI)
Several values for one entry are separate records, joined by “and”; a condition that tells them apart may be missing. Identical values can stand only once.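 Values below derive from 48-hour exposures of cells grown in 96-well plates, with endpoints linearly interpolated between the two concentrations bracketing the appropriate inhibition level. At the GI50, growth is halved. TGI: total growth inhibition.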

Key:
Assay in all cases: NCI tumour cell line growth inhibition, 48 h
[1] = test system: SNB-78 CNS
[2] = test system: SN12K1 renal
[3] = test system: KM20L2 colon
[4] = test system: P388/ADR leukemia
[5] = test system: DLD-1 colon
[6] = test system: DMS 114 small cell lung
[7] = test system: DMS 273 small cell lung
[8] = test system: M19-MEL melanoma
[9] = test system: XF 498 CNS
[10] = test system: LXFL 529 NSCLC

Structure (SMILES): OCC1OC(n2cnc3cncnc32)C(O)C1O (stereo not given)
- TGI [1]: 39.1 µM
- TGI [2]: 3.49 µM
- TGI [3]: 5.17 µM
- TGI [4]: 1.46 µM
- TGI [5]: 1.82 µM
- TGI [6]: 2.57 µM
- TGI [7]: 2.38 µM
- TGI [8]: 14.1 µM

Structure (SMILES): Cc1ccc(C(C)(C)C[P+](C)(c2ccccc2)c2ccccc2)cc1
- TGI [1]: 88.1 µM
- TGI [2]: > 90.7 µM
- TGI [3]: > 88.8 µM
- TGI [4]: > 100 µM
- TGI [9]: 12.9 µM
- TGI [5]: > 100 µM
- TGI [6]: 35.6 µM
- TGI [7]: 23.8 µM
- TGI [8]: > 89 µM

Structure (SMILES): [Cl][Pt+2][Cl].[NH-]C1CCCCC1[NH-] (stereo not given)
- GI50 [1]: 29 µM and 30 µM and 11.5 µM
- TGI [1]: > 100 µM
- TGI [2]: > 100 µM
- GI50 [3]: 8070 nM and 2190 nM and 1360 nM
- TGI [3]: 44.6 µM and > 52.9 µM and 29.6 µM
- GI50 [4]: 4690 nM and 2220 nM and 629 nM
- TGI [4]: 98.9 µM and > 100 µM and > 52.4 µM
- TGI [5]: > 100 µM
- TGI [8]: 23.9 µM and 25.7 µM and 10.6 µM

Structure (SMILES): COC(=O)C1CCC(=O)N1C(=O)Cc1ccc(OC)cc1 (stereo not given)
- TGI [1]: > 100 µM
- TGI [3]: > 100 µM
- TGI [9]: > 100 µM
- TGI [6]: > 100 µM
- TGI [10]: > 100 µM
- TGI [7]: > 100 µM
- TGI [8]: > 100 µM

Structure (SMILES): CC(C)=CCC/C(C)=C/CC/C(C)=C/Cc1c(O)c2ccccc2oc1=O
- TGI [1]: > 100 µM
- TGI [3]: > 100 µM
- TGI [5]: > 100 µM
- TGI [6]: > 100 µM
- TGI [10]: > 100 µM
- TGI [7]: > 100 µM
- TGI [8]: > 100 µM
